Measurements as given in the NIST ThermoML archive (doi:10.1021/je700193w).

Key:
[1] = xn = mol fraction of the nth substance listed; conditions: 101 kPa, Liquid
[2] = excess molar enthalpy (molar enthalpy of mixing); xn = mol fraction of the nth substance listed; conditions: 101 kPa, Liquid

C=C1CCC2CC1C2(C)C (stereo not drawn) [β-pinene] + CC(C)CO
Conditions | excess molar enthalpy, [2] [kcal/mol] | mass density, [1] [kg/m3] | speed of sound, [1] [m/s]
283.15 K, x1 = 0.0529 | 0.0158 | – | –
283.15 K, x1 = 0.0566 | – | 815.77 | 1248.3
283.15 K, x1 = 0.1066 | – | 820.99 | 1257.1
283.15 K, x1 = 0.109 | 0.0306 | – | –
283.15 K, x1 = 0.2011 | – | 829.88 | 1270.2
283.15 K, x1 = 0.2159 | 0.0605 | – | –
283.15 K, x1 = 0.2931 | – | 837.56 | 1281.1
283.15 K, x1 = 0.3175 | 0.0851 | – | –
283.15 K, x1 = 0.395 | – | 845.26 | 1292.2
283.15 K, x1 = 0.4299 | 0.108 | – | –
283.15 K, x1 = 0.4928 | – | 851.82 | 1302
283.15 K, x1 = 0.5331 | 0.124 | – | –
283.15 K, x1 = 0.6112 | – | 859.03 | 1313.9
283.15 K, x1 = 0.6229 | 0.13 | – | –
283.15 K, x1 = 0.6906 | – | 863.45 | 1321.1
283.15 K, x1 = 0.7198 | 0.127 | – | –
283.15 K, x1 = 0.7939 | – | 868.88 | 1330.7
283.15 K, x1 = 0.8249 | 0.111 | – | –
283.15 K, x1 = 0.8682 | – | 872.61 | 1337.7
283.15 K, x1 = 0.9096 | 0.0841 | – | –
283.15 K, x1 = 0.9393 | – | 876.05 | 1346.2
283.15 K, x1 = 0.9686 | 0.0672 | – | –
298.15 K, x1 = 0.0481 | – | 803.39 | 1195.7
298.15 K, x1 = 0.0529 | 0.0217 | – | –
298.15 K, x1 = 0.109 | 0.044 | – | –
298.15 K, x1 = 0.1107 | – | 809.85 | 1203.9
298.15 K, x1 = 0.201 | – | 818.16 | 1214.9
298.15 K, x1 = 0.2159 | 0.0841 | – | –
298.15 K, x1 = 0.2969 | – | 826.03 | 1225.1
298.15 K, x1 = 0.3175 | 0.115 | – | –
298.15 K, x1 = 0.4002 | – | 833.57 | 1235.2
298.15 K, x1 = 0.4299 | 0.141 | – | –
298.15 K, x1 = 0.4896 | – | 839.51 | 1243.9
298.15 K, x1 = 0.5331 | 0.156 | – | –
298.15 K, x1 = 0.5856 | – | 845.33 | 1252.2
298.15 K, x1 = 0.6229 | 0.161 | – | –
298.15 K, x1 = 0.6785 | – | 850.56 | 1260.4
298.15 K, x1 = 0.7198 | 0.152 | – | –
298.15 K, x1 = 0.7841 | – | 856.21 | 1270.1
298.15 K, x1 = 0.8249 | 0.131 | – | –
298.15 K, x1 = 0.8875 | – | 861.41 | 1280.4
298.15 K, x1 = 0.9096 | 0.101 | – | –
298.15 K, x1 = 0.933 | – | 863.62 | 1285.2
298.15 K, x1 = 0.9686 | 0.086 | – | –
303.15 K, x1 = 0.0505 | – | 799.78 | 1181.7
303.15 K, x1 = 0.0529 | 0.0275 | – | –
303.15 K, x1 = 0.1044 | – | 805.23 | 1188.4
303.15 K, x1 = 0.109 | 0.0566 | – | –
303.15 K, x1 = 0.2023 | – | 814.23 | 1200.2
303.15 K, x1 = 0.2159 | 0.116 | – | –
303.15 K, x1 = 0.2999 | – | 822.12 | 1210.6
303.15 K, x1 = 0.3175 | 0.154 | – | –
303.15 K, x1 = 0.3929 | – | 828.94 | 1219.2
303.15 K, x1 = 0.4299 | 0.185 | – | –
303.15 K, x1 = 0.4877 | – | 835.22 | 1227.7
303.15 K, x1 = 0.5331 | 0.2 | – | –
303.15 K, x1 = 0.6108 | – | 842.66 | 1238.3
303.15 K, x1 = 0.6229 | 0.204 | – | –
303.15 K, x1 = 0.6829 | – | 846.72 | 1244.6
303.15 K, x1 = 0.7198 | 0.191 | – | –
303.15 K, x1 = 0.7908 | – | 852.45 | 1254.4
303.15 K, x1 = 0.8249 | 0.162 | – | –
303.15 K, x1 = 0.8846 | – | 857.17 | 1263.9
303.15 K, x1 = 0.9096 | 0.124 | – | –
303.15 K, x1 = 0.9299 | – | 859.39 | 1268.9
303.15 K, x1 = 0.9686 | 0.103 | – | –
313.15 K, x1 = 0.0401 | – | 790.45 | 1143.3
313.15 K, x1 = 0.0529 | 0.0356 | – | –
313.15 K, x1 = 0.1042 | – | 796.91 | 1150.9
313.15 K, x1 = 0.109 | 0.0743 | – | –
313.15 K, x1 = 0.2004 | – | 805.6 | 1160.9
313.15 K, x1 = 0.2159 | 0.141 | – | –
313.15 K, x1 = 0.3012 | – | 813.68 | 1170.6
313.15 K, x1 = 0.3175 | 0.187 | – | –
313.15 K, x1 = 0.3902 | – | 820.11 | 1178.2
313.15 K, x1 = 0.4299 | 0.221 | – | –
313.15 K, x1 = 0.51 | – | 827.98 | 1187.7
313.15 K, x1 = 0.5331 | 0.239 | – | –
313.15 K, x1 = 0.6202 | – | 834.55 | 1196.8
313.15 K, x1 = 0.6229 | 0.242 | – | –
313.15 K, x1 = 0.6847 | – | 838.19 | 1202.2
313.15 K, x1 = 0.7198 | 0.225 | – | –
313.15 K, x1 = 0.7768 | – | 843.06 | 1210.2
313.15 K, x1 = 0.8249 | 0.192 | – | –
313.15 K, x1 = 0.8969 | – | 849.21 | 1222.1
313.15 K, x1 = 0.9096 | 0.147 | – | –
313.15 K, x1 = 0.9601 | – | 852.46 | 1230.5
313.15 K, x1 = 0.9686 | 0.123 | – | –
323.15 K, x1 = 0.0529 | 0.044 | – | –
323.15 K, x1 = 0.0547 | – | 783.66 | 1114.2
323.15 K, x1 = 0.1021 | – | 788.33 | 1119.3
323.15 K, x1 = 0.109 | 0.0839 | – | –
323.15 K, x1 = 0.207 | – | 797.66 | 1129.4
323.15 K, x1 = 0.2159 | 0.163 | – | –
323.15 K, x1 = 0.2989 | – | 804.85 | 1136.8
323.15 K, x1 = 0.3175 | 0.215 | – | –
323.15 K, x1 = 0.4024 | – | 812.32 | 1144.6
323.15 K, x1 = 0.4299 | 0.248 | – | –
323.15 K, x1 = 0.5041 | – | 818.98 | 1152.7
323.15 K, x1 = 0.5331 | 0.273 | – | –
323.15 K, x1 = 0.6074 | – | 825.2 | 1160.6
323.15 K, x1 = 0.6229 | 0.274 | – | –
323.15 K, x1 = 0.6965 | – | 830.27 | 1167.7
323.15 K, x1 = 0.7198 | 0.255 | – | –
323.15 K, x1 = 0.8063 | – | 836.02 | 1177.1
323.15 K, x1 = 0.8249 | 0.22 | – | –
323.15 K, x1 = 0.8887 | – | 840.5 | 1184.7
323.15 K, x1 = 0.9096 | 0.169 | – | –
323.15 K, x1 = 0.9618 | – | 844.41 | 1192.6
323.15 K, x1 = 0.9686 | 0.141 | – | –
